This note sets out measurements from US4407806A, “Fungicidal, herbicidal and plant growth regulating pyridyl-containing ethers” (Chevron Research Company, priority 1981, dated 1983).

Holding throughout (format): in vivo
Assay [1] deals with grape downy mildew organism Plasmopara viticola. In words: Grape Downy Mildew control (detached grape leaves). The conditions noted are these: vs untreated check, read-out: Fungicidal Activity Control %, Grape D.M.
For assay [2], the system named is Tomato Late Blight organism Phytophthora infestans. In words: whole plant or invertebrate. The conditions noted are these: 168 h, read-out: Fungicidal Activity Control %, Tomato L.B.
A further assay deals with Idaho pinto bean plants. In words: Axillary Bud Growth Inhibition Of Pinto Bean Plants. The conditions noted are these: 288 h; 625-ppm; twelve days after treatment; vs untreated check; read-out: Bud Inhib (percent inhibition of axillary bud growth). As to the method:
Compounds of this invention were tested to determine their plant-growth-retarding effects on axillary bud growth of pinto beans.
Idaho pinto bean plants (13-16 days old) having monofoliate leaves fully developed and first trifoliates beginning to unfold were used. All growth 5 mm above the monofoliate leaf node was removed with forceps 1 to 4 hours prior to treatment with the test compounds. Four plants were used for each test compound.
A 625-ppm solution of the test compound in a 2% aqueous acetone solution containing a small amount of a nonionic surfactant was sprayed onto the pinto bean plants until runoff. After drying, the treated plants were transferred to a greenhouse maintained at 20°-23° C. and watered at regular intervals. Twelve days after treatment, the bud growth at the axil of the monofoliate leaf was determined and expressed as percent inhibition of axillary bud growth as compared to untreated check plants.

In another assay the test system is Cotton plants. In words: Cotton Regrowth. The conditions noted are these: Gossypium hirsutum, 13 to 18 days, 100% is total inhibition, read-out: Regrowth (percent inhibition of cotton regrowth). As to the method:
Compounds of this invention were tested to determine their plant-growth regulating effects on cotton leaf regrowth.
Cotton plants, 4 to 5 weeks old, containing 4 true leaves above the cotyledonary leaves are employed. Growth beyond the second true leaf was removed. Within 24 hours the plants are sprayed with a 2000 ppm solution of the test compound. After spraying, the plants are transferred to a greenhouse maintained at 85° F. (±5° F.) and incubated there for from 13 to 18 days. The plants during this period are sub-irrigated in 1/4" of water.
After this period, regrowth is determined as a percent inhibition of auxiliary bud regrowth--100% is total inhibition while 0% is no inhibition.

In assay [3] the test system is Wild Oats (Avena fatura). In words: Post-emergent herbicidal test. The conditions noted are these: 504 h, post-emergence, 33 micrograms/cm^2, 3 weeks, 0-to-100 scale.
The subject of assay [4] is Soybean. In words: Post-emergent herbicidal test. The conditions noted are these: Glycine max, 504 h, post-emergence, 33 micrograms/cm^2, 3 weeks, 0-to-100 scale, read-out: Herbicidal Activity Post-Emergence % Control, Soybean.
Assay [5] relates to Lambsquarter (Chenopodium album). In words: Post-emergent herbicidal test. The conditions noted are these: 504 h, post-emergence, 33 micrograms/cm^2, 3 weeks, 0-to-100 scale, read-out: Herbicidal Activity Post-Emergence % Control, L'Qtr.
The test system of assay [6] is Pigweed (Amaranthus retraflexus). In words: Post-emergent herbicidal test. The conditions noted are these: 504 h, post-emergence, 33 micrograms/cm^2, 3 weeks, 0-to-100 scale.
For assay [7], the system named is Watergrass (Echinochloa crusgalli). In words: Post-emergent herbicidal test. The conditions noted are these: Echinochloa crus-galli, 504 h, post-emergence, 33 micrograms/cm^2, 3 weeks, 0-to-100 scale, read-out: Herbicidal Activity Post-Emergence % Control, Water Grass.
For assay [8], the system named is Crabgrass (Digitaria sanguinalis). In words: Post-emergent herbicidal test. The conditions noted are these: 504 h, post-emergence, 33 micrograms/cm^2, 3 weeks, 0-to-100 scale, read-out: Herbicidal Activity Post-Emergence % Control, Crab Grass.
Assay [9] deals with Mustard (Brassica arvensis). In words: Post-emergent herbicidal test. The conditions noted are these: 504 h, post-emergence, 33 micrograms/cm^2, 3 weeks, 0-to-100 scale.
For assay [10], the system named is Bean Powdery Mildew organism Erisiphe polygoni. In words: Bean Powdery Mildew control. The conditions noted are these: 240 h, 10 days, vs untreated check, read-out: Fungicidal Activity Control %, Bean P.M. The method, then:
The compounds of the invention were tested for the control of the Bean Powdery Mildew organism […] polygoni. Seedling bean plants were sprayed with a 250 ppm solution of the test compound in acetone, water and a nonionic emulsifier. The sprayed plants were then inoculated 1 day later with organism. […] The percent disease control provided by a given test compound was based on the percent disease reduction relative to the untreated check plants.

Assay [11] relates to tomato Early Blight organism, Alternaria solani conidia. In words: Tomato Early Blight control. The conditions noted are these: 288 h, about 12 days in greenhouse, vs untreated check, read-out: Fungicidal Activity Control %, Tomato E.B. As to the method:
Compounds of the invention were tested for the control of the tomato Early Blight organism, Alternaria solani conidia. Tomato (variety Bonny Best) seedlings of 6 to 7 weeks old were used. The tomato plants were sprayed with a 250 ppm solution of the test compound in an acetone-and-water solution containing a small amount of a nonionic emulsifier. The sprayed plants were inoculated one day later with the organism, placed in the environmental chamber and incubated at […] and 100% relative humidity for 24 hours. Following the incubation, the plants were maintained in a greenhouse for about 12 days. Percent diseases control was based on the percent disease development on untreated check plants.

For assay [12], the system named is Wild Oats (Avena fatura). In words: Pre-emergent herbicidal test. The conditions noted are these: 504 h, pre-emergence, 33 micrograms/cm^2, 3 weeks, 0-to-100 scale. The method, then:
(§1) An acetone solution of the test compound was prepared by mixing 750 mg of the compound, 220 mg of a nonionic surfactant and 25 ml of acetone. This solution was added to approximately 125 ml of water containing 156 mg of surfactant.
(§2) Seeds of the test vegetation were planted in a pot of […] and the test solution was sprayed uniformly onto the soil surface at a dose of 33 micrograms/cm^2. The pot was watered and placed in a greenhouse. […] At the end of this period, the herbicidal effectiveness of the compound was rated based on the physiological observations. A 0-to-100 scale was used, 0 representing no phytotoxicity, 100 representing complete kill.

Assay [13] deals with Soybean. In words: Pre-emergent herbicidal test. The conditions noted are these: Glycine max, 504 h; pre-emergence; 33 micrograms/cm^2; 3 weeks; 0-to-100 scale; read-out: Herbicidal Activity Pre-Emergence % Control, Soybean. As to the method: as §1, §2
In assay [14] the test system is Lambsquarter (Chenopodium album). In words: Pre-emergent herbicidal test. The conditions noted are these: 504 h, pre-emergence, 33 micrograms/cm^2, 3 weeks, 0-to-100 scale, read-out: Herbicidal Activity Pre-Emergence % Control, L'Qtr. As to the method:
as §1, §2

In assay [15] the test system is Pigweed (Amaranthus retraflexus). In words: Pre-emergent herbicidal test. The conditions noted are these: 504 h, pre-emergence, 33 micrograms/cm^2, 3 weeks, 0-to-100 scale. As to the method:
as §1, §2

Assay [16] relates to Watergrass (Echinochloa crusgalli). In words: Pre-emergent herbicidal test. The conditions noted are these: Echinochloa crus-galli, 504 h; pre-emergence; 33 micrograms/cm^2; 3 weeks; 0-to-100 scale; read-out: Herbicidal Activity Pre-Emergence % Control, Water Grass. The method, then: as §1, §2
Assay [17] concerns Crabgrass (Digitaria sanguinalis). In words: Pre-emergent herbicidal test. The conditions noted are these: 504 h, pre-emergence, 33 micrograms/cm^2, 3 weeks, 0-to-100 scale, read-out: Herbicidal Activity Pre-Emergence % Control, Crab Grass. As to the method: as §1, §2
The subject of assay [18] is Mustard (Brassica arvensis). In words: Pre-emergent herbicidal test. The conditions noted are these: 504 h, pre-emergence, 33 micrograms/cm^2, 3 weeks, 0-to-100 scale. The method, then: as §1, §2
In assay [19] the test system is celery late blight organism Septoria apii. In words: whole plant or invertebrate. The conditions noted are these: 336 h, read-out: Fungicidal Activity Control %, Celery L.B.

Take `c1ccc(COC(c2ccccc2)c2cccnc2)cc1` (stereo not drawn) [Compound 7]: the pest or weed control at 250 ppm in assay [1] was determined as 0%; in assay [2] it was 0%; in [10], 100%; in [11], 0%; in [19] it was 43%. In the assay with Idaho pinto bean plants, the pest or weed control at 625 µg/mL is 20%. For the same compound, the inhibition at 2000 ppm in the assay on Cotton plants stood at 90%. For the same compound, the pest or weed control at 5000 ppm, 33 µg/cm2 with Wild Oats (Avena fatura) [3] is 0%; in [5] it was 65%; in assay [6], 45%; in [7], 0%; in assay [8], 0%; in assay [9], 60%. In addition, in the assay with Soybean [4], the plant injury at 5000 ppm, 33 µg/cm2 came to 35%. The pest or weed control at 33 µg/cm2 in the assay with Wild Oats (Avena fatura) [12] is 0%; in assay [14] it was 28%; in assay [15], 32%; in assay [16] it was 80%; in [17], 99%; in [18], 0%. Moreover, the plant injury at 33 µg/cm2 in the assay with Soybean [13] came to 0%.
